From patent publication US8513227B2, “Inhibition of inflammatory cytokine production with tanshinones” (The Feinstein Institute for Medical Research, priority 2006, dated 2013)

Legend:
62 cytokines = assay: Cytokine antibody array of LPS-stimulated macrophage culture medium; assay type: cell-based, murine
Description: Cytokine antibody array. Murine cytokine antibody array (Cat. No. M0308003, RayBiotech Inc., Norcross, Ga., USA), which detects 62 cytokines on one membrane, was used to determine the profile of cytokines in the culture medium following the manufacturer's instructions. Briefly, the membranes were sequentially incubated with equal volume of cell-conditioned culture medium, primary biotin-conjugated antibody, and horseradish peroxidase-conjugated streptavidin. After exposing to X-ray film, the relative signal intensity was determined using the NIH image 1.59 software with reference to the positive controls on the membrane.

HMGB1 = assay: LPS-induced HMGB1 release in murine peritoneal macrophages; assay type: cell-based; conditions: data not shown
Description: Cell culture. Murine macrophage-like RAW 264.7 cells were obtained from the American Type Culture Collection (ATCC, Rockville, Md.), and primary peritoneal macrophages were isolated from Balb/C mice (male, 7-8 weeks, 20-25 grams) at 2-3 days after intraperitoneal injection of 2 ml thioglycollate broth (4%) as previously described (Chen et al. 2004; Rendon-Mitchell et al. 2003). Murine macrophages were pre-cultured in RPMI 1640 medium (Gibco BRL, Grand Island, N.Y.) supplemented with 10% fetal bovine serum (FBS) and 2 mmol/L glutamine. […]
LPS stimulation. […] At 16 hours after LPS stimulation, levels of HMGB1 in the culture medium were determined as previously described (Chen et al. 2004; Rendon-Mitchell et al. 2003; Wang et al. 1999).
HMGB1 western blotting analysis. The levels of HMGB1 in the culture medium or serum were determined by western blotting analysis as previously described (Chen et al. 2004; Rendon-Mitchell et al. 2003; Wang et al. 1999). The relative band intensity was quantified using NIH image 1.59 software to determine HMGB1 levels with reference to standard curves generated with purified HMGB1.

Cc1c(S(=O)(=O)[O-])oc2c1C(=O)C(=O)c1c-2ccc2c1CCCC2(C)C.[Na+] [TSNIIA-SS, tanshinone IIA sodium sulfonate]
attenuation of LPS-induced release of IL-1α (62 cytokines; 100 μM, cytokine array): 50±7% | attenuation of LPS-induced release of IL-12p70 (62 cytokines; 100 μM, cytokine array): 45±5% | attenuation of LPS-induced release of MCP-5 (62 cytokines; 100 μM, cytokine array): 25±5% | attenuation of LPS-induced release of platelet factor 4 (PF-4) (62 cytokines; 100 μM, cytokine array): 35±6% | effect on release of most cytokines, including IL-6, IL-12p40/p70, KC, MCP-1, MIP-1α, MIP-1γ, MIP-2 and TNF (62 cytokines; 100 μM, RAW 264.7 cells or primary peritoneal macrophages): did not suppress | number of other cytokines whose release is not affected (62 cytokines; at concentrations that completely abrogate LPS-induced HMGB1 release): 58 out of 62 | effect on LPS-induced HMGB1 release (HMGB1): effectively inhibited
